Common to all, as to type: in vivo
For one experiment, the system named is Veronica persica. Kind of experiment: Pre-emergence herbicidal action, VERPE. The conditions noted are these: for herbicidal activity VERPE: dosage 320 g/ha, scored visually after 3 weeks vs untreated controls (100% = plants have died); for Herbicidal action against VERPE: comparative experiment, 20 g of a.i./ha. Set-up: key to Herbicidal action against VERPE: % activity: 100 = plants have died, 0 = like control plants. An outline of the steps:
(§1)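 Pre-emergence soil spray over sandy loam-covered seeds; greenhouse 3 weeks; % visual damage (0% = control, 100% = dead).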

Another experiment has as its system Viola tricolor. Kind of experiment: Post-emergence herbicidal action, VIOTR. Set-up: key: % herbicidal action vs untreated; 100 = plants died, 0 = like control. A digest of the protocol:
(§2)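 Sandy loam, greenhouse; one-leaf stage (2–3 wk after sowing); foliar spray of WP or EC, 600–800 l/ha water + 0.2% wetter; visual rating at ~3 wk vs untreated, % effect.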

Another experiment relates to Matricaria inodora. Kind of experiment: Pre-emergence herbicidal action, MATIN. Set-up: key to Herbicidal action against MATIN: % activity: 100 = plants have died, 0 = like control plants. The conditions noted are these: for herbicidal activity MATIN: dosage 320 g/ha, scored visually after 3 weeks vs untreated controls (100% = plants have died). An outline of the steps:
as §1

A further experiment concerns Lolium rigidum. Kind of experiment: Pre-emergence herbicidal action, LOLRI. The conditions noted are these: dosage 320 g/ha, scored visually after 3 weeks vs untreated controls (100% = plants have died). The text has this:
1. Pre-Emergence Herbicidal Action Against Harmful Plants Seeds of monocotyledonous and dicotyledonous weed plants and crop plants are laid out in sandy loam soil in wood-fiber pots and covered with soil. The compounds of the invention, formulated in the form of wettable powders (WP) or as emulsion concentrates (EC), are then applied to the surface of the covering soil in the form of an aqueous suspension or emulsion at a water application rate equating to 600 to 800 l/ha, with addition of 0.2% wetting agent. After the treatment, the pots are placed in a greenhouse and kept under good growth conditions for the trial plants. The damage to the test plants is scored visually after a test period of 3 weeks by comparison with untreated controls (herbicidal activity in percent (%): 100% activity=the plants have died, 0% activity=like control plants). […] The tables below illustrate, in an exemplary manner, the […] herbicidal action of the compounds according to the invention, the herbicidal activity being stated in percent. [table] In the experiments that follow, herbicidal action of numerous inventive compounds and the known compounds that are structurally closest from D1 (WO 2012/028579 A1) and D2 (WO 2018/202535 A1) were compared under the above-specified conditions by the pre-emergence and post-emergence method. The example numbers given in the tables relate to the compounds disclosed in the respective documents. In addition to the compounds disclosed in D1 and D2, the following compounds V-1 to V-14 that are encompassed by D1 or D2 but are not compounds specified therein were used in the comparative experiments: • V-1: 2-(methylsulfanyl)-3-(methylsulfinyl)-N-(1-methyl-1H-tetrazol-5-yl)-4-(trifluoromethyl)benzamide • V-2: 2-(methylsulfanyl)-3-(methylsulfonyl)-N-(1-methyl-1H-tetrazol-5-yl)-4-(trifluoromethyl)benzamide • V-3: 2,3-bis(ethylsulfanyl)-N-(1-methyl-1H-tetrazol-5-yl)-4-(trifluoromethyl)benzamide • V-4: 2-chloro-3-(ethylsulfanyl)-N-(1-methyl-1H-tetrazol-5-yl)-4-(trifluoromethyl)benzamide • V-5: 2-chloro-4-iodo-3-(methylsulfanyl)-N-(1-methyl-1H-tetrazol-5-yl)benzamide • V-6: 2-chloro-4-iodo-3-(methylsulfinyl)-N-(1-methyl-1H-tetrazol-5-yl)benzamide • V-7: 2-chloro-4-iodo-3-(methylsulfonyl)-N-(1-methyl-1H-tetrazol-5-yl)benzamide • V-8: 2-bromo-3-(methylsulfanyl)-N-(1-methyl-1H-tetrazol-5-yl)-4-(trifluoromethyl)benzamide • V-9: 2-bromo-3-(methylsulfinyl)-N-(1-methyl-1H-tetrazol-5-yl)-4-(trifluoromethyl)benzamide • V-10: 2-bromo-3-(methylsulfonyl)-N-(1-methyl-1H-tetrazol-5-yl)-4-(trifluoromethyl)benzamide • V-11: 2-bromo-3-(ethylsulfanyl)-N-(1-methyl-1H-tetrazol-5-yl)-4-(trifluoromethyl)benzamide • V-12: 2-bromo-3-(ethylsulfinyl)-N-(1-methyl-1H-tetrazol-5-yl)-4-(trifluoromethyl)benzamide • V-13: 2-bromo-3-(ethylsulfonyl)-N-(1-methyl-1-1H-tetrazol-5-yl)-4-(trifluoromethyl)benzamide • V-14: 2-cyclopropyl-3-(ethylsulfanyl)-N-(1-methyl-1H-tetrazol-5-yl)-4-(trifluoromethyl)benzamide Herbicidal Pre-Emergence Action: […]

The test system of the next experiment is Hordeum murinum. Kind of experiment: Pre-emergence herbicidal action, HORMU. To be noted: dosage 320 g/ha, scored visually after 3 weeks vs untreated controls (100% = plants have died). A digest of the protocol: as §1
The subject of a further experiment is Cyperus esculentus. Kind of experiment: Post-emergence herbicidal action, CYPES. Set-up: key: % herbicidal action vs untreated; 100 = plants died, 0 = like control. An outline of the steps: as §2

Structures are written as SMILES.

In the case of `CSc1c(C(=O)Nc2nnnn2C)ccc(C(F)(F)F)c1C[S+](C)[O-]` (stereo not shown) [Example 1-162], the “herbicidal activity VERPE” value with Veronica persica is listed as 90%. Moreover, the “herbicidal action VIOTR” value with Viola tricolor (post-emergence, dosage 80 g/ha) turned out to be 100%. The “herbicidal activity MATIN” value with Matricaria inodora worked out at 100%. Moreover, the “herbicidal activity LOLRI” value in the experiment on Lolium rigidum was 90%. Further, in the experiment on Hordeum murinum, the “herbicidal activity HORMU” value turned out to be 80%. Moreover, the “herbicidal action CYPES” value in the experiment on Cyperus esculentus (post-emergence, dosage 80 g/ha) is recorded as 80%.

On to `Cn1nnnc1NC(=O)c1ccc(C(F)(F)F)c(CSCC(F)(F)F)c1Cl` [Example 1-311], for which, in the experiment on Veronica persica, the “herbicidal activity VERPE” value came to 100%. Further, the “herbicidal action VIOTR” value in the experiment on Viola tricolor (Dosage 80 g/ha) was found to be 100. In the experiment on Matricaria inodora, the “herbicidal activity MATIN” value came out at 100%. Moreover, in the experiment on Lolium rigidum, the “herbicidal activity LOLRI” value is on record as 100%. In addition, the “herbicidal activity HORMU” value in the experiment with Hordeum murinum is 100%. Also, the “herbicidal action CYPES” value with Cyperus esculentus (Dosage 80 g/ha) worked out at 100.

With `Cn1nnnc1NC(=O)c1ccc(C(F)(F)F)c(C[S+]([O-])C2CC2)c1Cl` (racemic) [Example 1-303], the “herbicidal activity VERPE” value in the experiment on Veronica persica worked out at 100%. Also, the “herbicidal action VIOTR” value in the experiment on Viola tricolor (post-emergence, dosage 80 g/ha) was 100%. Besides, the “herbicidal activity MATIN” value in the experiment on Matricaria inodora was 100%. The “herbicidal activity LOLRI” value in the experiment with Lolium rigidum came out at 100%. Moreover, the “herbicidal activity HORMU” value in the experiment on Hordeum murinum was 100%. Moreover, in the experiment with Cyperus esculentus (post-emergence, dosage 80 g/ha), the “herbicidal action CYPES” value is reported as 80%.

In the case of `Cn1nnnc1NC(=O)c1ccc(C(F)(F)F)c(CS(=O)(=O)C2CC2)c1Cl` [Example 1-304], in the experiment with Veronica persica, the “herbicidal activity VERPE” value is reported as 100%. The “herbicidal action VIOTR” value in the experiment with Viola tricolor (post-emergence, dosage 80 g/ha) is recorded as 100%. Further, in the experiment with Matricaria inodora, the “herbicidal activity MATIN” value was 100%. Besides, the “herbicidal activity LOLRI” value in the experiment with Lolium rigidum turned out to be 100%. Further, the “herbicidal activity HORMU” value in the experiment with Hordeum murinum came out at 100%. Also, the “herbicidal action CYPES” value in the experiment with Cyperus esculentus (post-emergence, dosage 80 g/ha) came to 90%.

Turning to `CCCn1nnnc1NC(=O)c1ccc(C(F)(F)F)c(CSCC2CC2)c1Cl` [Example 3-314], the “herbicidal activity VERPE” value in the experiment on Veronica persica amounted to 100%. Also, in the experiment with Viola tricolor (post-emergence, dosage 80 g/ha), the “herbicidal action VIOTR” value turned out to be 100%. The “herbicidal activity MATIN” value in the experiment on Matricaria inodora came out at 100%. In the experiment with Lolium rigidum, the “herbicidal activity LOLRI” value is 90%. Moreover, the “herbicidal activity HORMU” value in the experiment with Hordeum murinum amounted to 90%. Besides, the “herbicidal action CYPES” value with Cyperus esculentus (post-emergence, dosage 80 g/ha) amounted to 80%.

Turning to `Cn1nnnc1NC(=O)c1ccc(C(F)(F)F)c(CSC2CC2)c1Cl` [Example 1-302], the “herbicidal activity VERPE” value in the experiment on Veronica persica came to 100%. Moreover, the “herbicidal action VIOTR” value in the experiment on Viola tricolor (post-emergence, dosage 80 g/ha) stood at 100%. Moreover, in the experiment on Matricaria inodora, the “herbicidal activity MATIN” value is recorded as 100%. Further, in the experiment on Lolium rigidum, the “herbicidal activity LOLRI” value was 100%. The “herbicidal activity HORMU” value in the experiment with Hordeum murinum came to 100%. Also, the “herbicidal action CYPES” value with Cyperus esculentus (post-emergence, dosage 80 g/ha) is recorded as 80%.

For the molecule `COCCSCc1c(C(F)(F)F)ccc(C(=O)Nc2nnnn2C)c1Cl` [Example 1-305], the “herbicidal activity VERPE” value in the experiment with Veronica persica came out at 100%. In the experiment on Viola tricolor (post-emergence, dosage 80 g/ha), the “herbicidal action VIOTR” value came to 100%. The “herbicidal activity MATIN” value with Matricaria inodora is reported as 100%. The “herbicidal activity LOLRI” value with Lolium rigidum worked out at 90%. Further, in the experiment with Hordeum murinum, the “herbicidal activity HORMU” value turned out to be 100%. For the same molecule, the “herbicidal action CYPES” value in the experiment on Cyperus esculentus (post-emergence, dosage 80 g/ha) was 90%.

As to `CCCn1nnnc1NC(=O)c1ccc(C(F)F)c(CS(=O)(=O)CC)c1Cl` [Example 3-325], the “herbicidal action VIOTR” value in the experiment on Viola tricolor (Dosage 80 g/ha) is 100. In the experiment with Matricaria inodora, the “herbicidal activity MATIN” value is given as 100%. The “herbicidal activity LOLRI” value with Lolium rigidum stood at 100%. Besides, the “herbicidal activity HORMU” value in the experiment with Hordeum murinum was found to be 100%. In the experiment on Cyperus esculentus (Dosage 80 g/ha), the “herbicidal action CYPES” value turned out to be 90.

With `Cn1nnnc1NC(=O)c1ccc(C(F)(F)F)c(CSCC2CC2)c1Cl` [Example 1-314], in the experiment on Veronica persica, the “herbicidal activity VERPE” value is reported as 100%. Besides, the “herbicidal action VIOTR” value in the experiment with Viola tricolor (post-emergence, dosage 80 g/ha) amounted to 100%. Also, the “herbicidal activity MATIN” value in the experiment with Matricaria inodora was 100%. The “herbicidal activity LOLRI” value in the experiment with Lolium rigidum is given as 100%. Besides, in the experiment with Hordeum murinum, the “herbicidal activity HORMU” value is 100%. Further, the “herbicidal action CYPES” value with Cyperus esculentus (post-emergence, dosage 80 g/ha) is listed as 80%.

With `CSCc1c(I)ccc(C(=O)Nc2nnnn2C)c1Cl` [Example 1-362], in the experiment with Veronica persica, the “Herbicidal action against VERPE” value is listed as 60 and the “herbicidal activity VERPE” value came to 100%. Besides, the “herbicidal action VIOTR” value with Viola tricolor (post-emergence, dosage 80 g/ha) worked out at 100%. For the same molecule, the “Herbicidal action against MATIN” value with Matricaria inodora (comparative experiment, 20 g of a.i./ha) turned out to be 70. Also, the “herbicidal activity MATIN” value with Matricaria inodora was found to be 100%. Besides, the “herbicidal activity LOLRI” value with Lolium rigidum is recorded as 80%. In addition, in the experiment with Hordeum murinum, the “herbicidal activity HORMU” value turned out to be 80%. Also, the “Herbicidal action against CYPES” value in the experiment on Cyperus esculentus (comparative experiment, post-emergence, 5 g of a.i./ha) was 30.

As to `CCn1nnnc1NC(=O)c1ccc(C(F)(F)F)c(CSCCOC)c1Cl` [Example 2-305], in the experiment on Veronica persica, the “herbicidal activity VERPE” value amounted to 100%. Further, the “herbicidal action VIOTR” value in the experiment with Viola tricolor (post-emergence, dosage 80 g/ha) is on record as 100%. For the same molecule, in the experiment on Matricaria inodora, the “herbicidal activity MATIN” value came out at 100%. Besides, the “herbicidal activity LOLRI” value with Lolium rigidum is reported as 100%. For the same molecule, in the experiment with Hordeum murinum, the “herbicidal activity HORMU” value amounted to 100%. For the same molecule, the “herbicidal action CYPES” value with Cyperus esculentus (post-emergence, dosage 80 g/ha) is on record as 100%.

For `C=CCSCc1c(C(F)(F)F)ccc(C(=O)Nc2nnnn2CCC)c1Cl` [Example 3-308], in the experiment with Veronica persica, the “herbicidal activity VERPE” value is reported as 100%. Further, the “herbicidal action VIOTR” value in the experiment with Viola tricolor (Dosage 80 g/ha) came to 80. Also, the “herbicidal activity MATIN” value in the experiment with Matricaria inodora is 100%. Besides, the “herbicidal activity LOLRI” value with Lolium rigidum turned out to be 80%. For the same molecule, in the experiment on Hordeum murinum, the “herbicidal activity HORMU” value turned out to be 80%. Besides, the “herbicidal action CYPES” value with Cyperus esculentus (Dosage 80 g/ha) amounted to 90.

For the molecule `Cn1nnnc1NC(=O)c1ccc(I)c(CS(C)(=O)=O)c1Cl` [Example 1-364], in the experiment with Veronica persica, the “Herbicidal action against VERPE” value was 100 and the “herbicidal activity VERPE” value worked out at 100%. In the experiment on Viola tricolor (Dosage 80 g/ha), the “herbicidal action VIOTR” value was determined as 100. Further, in the experiment on Matricaria inodora, the “herbicidal activity MATIN” value amounted to 100%. Besides, in the experiment on Lolium rigidum, the “herbicidal activity LOLRI” value was found to be 80%. For the same molecule, the “herbicidal activity HORMU” value with Hordeum murinum stood at 90%.

Source of the values: patent US12492173B2, “Herbicidal substituted N-tetrazolyl aryl carboxamides” (Bayer Aktiengesellschaft, priority 2019, dated 2025).
